Measurements reported in US20250296959A1, “B7-H3 TARGETING PEPTIDES AND CONSTRUCTS THEREOF” (Mariana Oncology Inc., priority 2024, published 2025).
Starred links: 1 amine or outer side, 2 acyl side, 3 side chain; linkers in the order of their positions; H or OH if unused. Positions of bridges follow the written chain, without caps; N, C: chain ends. Non-standard residues stand in square brackets, D forms with d. Residues, ends and D or L forms follow the SMILES beside them. Groups on a side chain read outwards from the residue. *: point of attachment. Ala(1-CH2CO2H-4-piperidyl) = N[C@@H](CC1CCN(CC(=O)O)CC1)C(=O)O; Ala(piperidin-4-yl) = O=C([C@H](CC1CCN([*:3])CC1)N[*:1])[*:2]; DOTA = O=C(O)CN1CCN(CC(=O)O)CCN(CC(=O)*)CCN(CC(=O)O)CC1; Trp(5-F) = N[C@@H](Cc1c[nH]c2ccc(F)cc12)C(=O)O; X13 = NC(=O)N1CCC(C[C@H](N[*:1])C(=O)[*:2])CC1; X15 = CC(=O)N1CCC(C[C@H](N[*:1])C(=O)[*:2])CC1; X1 = C[C@@H](c1ccccc1)[C@H](N[*:1])C(=O)[*:2]; X17 = CN1CCC(C[C@H](N[*:1])C(=O)[*:2])CC1; Lys(Me3) = C[N+](C)(C)CCCC[C@H](N)C(=O)O; 1Nal = N[C@@H](Cc1cccc2ccccc12)C(=O)O; Ala(4-THP) = N[C@@H](CC1CCOCC1)C(=O)O; Val(3-OH) = CC(C)(O)[C@H](N)C(=O)O; Cya = N[C@@H](CS(=O)(=O)O)C(=O)O; Aad = N[C@@H](CCCC(=O)O)C(=O)O; PEG4 = NCCOCCOCCOCCOCCC(=O)O; Tle = CC(C)(C)[C@H](N)C(=O)O; hLeu = CC(C)CC[C@H](N)C(=O)O; Nle = CCCC[C@H](N)C(=O)O; Dab = NCC[C@H](N)C(=O)O

molecular target: T1, human 4lg B7-H3 (Homo sapiens, UniProt Q5ZPR3); experiment: Affinity determination by surface plasmon resonance (SPR) to 4Ig B7-H3; conditions: SPR KD—25° C., 4Ig B7-H3; 25° C. flow cell temperature
T1 sequence (Q5ZPR3 29-534): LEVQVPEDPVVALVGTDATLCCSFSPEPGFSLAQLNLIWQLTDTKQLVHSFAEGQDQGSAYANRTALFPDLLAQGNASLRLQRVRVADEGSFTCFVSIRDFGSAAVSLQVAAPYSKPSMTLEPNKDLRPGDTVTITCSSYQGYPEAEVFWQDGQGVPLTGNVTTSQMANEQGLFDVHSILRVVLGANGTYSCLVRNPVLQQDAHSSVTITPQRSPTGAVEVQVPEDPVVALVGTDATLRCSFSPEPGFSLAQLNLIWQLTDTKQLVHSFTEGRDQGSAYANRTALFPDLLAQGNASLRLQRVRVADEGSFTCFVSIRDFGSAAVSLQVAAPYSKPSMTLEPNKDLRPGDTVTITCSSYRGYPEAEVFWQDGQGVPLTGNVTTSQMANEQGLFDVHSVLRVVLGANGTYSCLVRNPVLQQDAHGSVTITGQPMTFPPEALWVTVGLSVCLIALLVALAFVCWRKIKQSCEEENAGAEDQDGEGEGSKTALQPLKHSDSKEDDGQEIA

Kd [nM] | Compound
10 to 100 | CCCC[C@H](NC(C)=O)C(=O)N[C@@H](Cc1ccc(O)cc1)C(=O)N[C@H]1CSSC[C@@H](C(=O)N[C@@H](Cc2c[nH]c3ccccc23)C(=O)N[C@@H](Cc2ccccc2)C(=O)N[C@H](C(=O)N[C@H](CCCCNC(=O)CN2CCN(CC(=O)O)CCN(CC(=O)O)CCN(CC(=O)O)CC2)C(N)=O)[C@@H](C)O)NC(=O)[C@H](Cc2ccc(O)cc2)NC(=O)[C@H](C(C)C)NC(=O)[C@H](CCN)NC(=O)[C@H](Cc2ccc(O)cc2)NC(=O)[C@H](CCCCN)NC(=O)CNC(=O)[C@H](C(C)C)NC1=O [compound 552, Ac-Nle-Y-C-V-G-K-Y-Dab-V-Y-C-W-F-Thr-dLys(DOTA)-CONH2] (Ac-[Nle]YCVGKY[Dab]VYCWFT[dK](DOTA)-NH2; disulfide 3-11)

same assay, conditions: SPR KD—37° C., 4Ig B7-H3; 37° C. flow cell temperature

Kd [nM] | Compound
< 1 | CC(=O)NCCCC[C@@H]1NC(=O)CNC(=O)[C@H](C(C)(C)C)NC(=O)[C@@H](NC(=O)[C@H](Cc2ccc(O)cc2)NC(=O)[C@H](CCC(C)C)NC(C)=O)CSSC[C@@H](C(=O)N[C@@H](Cc2c[nH]c3ccc(F)cc23)C(=O)N[C@H](C(=O)N[C@H](C(=O)N[C@H](C)C(=O)O)C(C)(C)O)[C@@H](C)c2ccccc2)NC(=O)[C@H](Cc2ccc(O)cc2)NC(=O)[C@H](C(C)C)NC(=O)[C@H](CC(=O)O)NC(=O)[C@H](CC2CCN(C(=O)CCOCCOCCOCCOCCNC(=O)CN3CCN(CC(=O)O)CCN(CC(=O)O)CCN(CC(=O)O)CC3)CC2)NC1=O [compound 512, Ac-hLeu-Y-C-Tbg-G-Lys(Ac)-Pip(PEG4-DOTA)Ala-D-V-Y-C-5FW-[(2S, 3S)beta-Me-Phe]-hydroxyVal-dAla-COOH] (Ac-[hLeu]YC[Tle]GK(Ac)[Ala(piperidin-4-yl)]([PEG4-DOTA])DVYC[Trp(5-F)][X1][Val(3-OH)][dA]-OH; disulfide 3-11)
< 1 | CC(=O)N[C@@H](CCC(C)C)C(=O)N[C@@H](Cc1ccc(O)cc1)C(=O)N[C@H]1CSSC[C@@H](C(=O)N[C@@H](Cc2c[nH]c3ccc(F)cc23)C(=O)N[C@H](C(=O)N[C@H](C(=O)N[C@H](C)C(=O)O)C(C)(C)O)[C@@H](C)c2ccccc2)NC(=O)[C@H](Cc2ccc(O)cc2)NC(=O)[C@H](C(C)C)NC(=O)[C@H](CC(=O)O)NC(=O)[C@H](CC2CCN(C(=O)CCOCCOCCOCCOCCNC(=O)CN3CCN(CC(=O)O)CCN(CC(=O)O)CCN(CC(=O)O)CC3)CC2)NC(=O)[C@H](CC2CCN(C(C)=O)CC2)NC(=O)CNC(=O)[C@H](C(C)(C)C)NC1=O [compound 513, Ac-hLeu-Y-C-Tbg-G-Pip(Ac)Ala-Pip(PEG4-DOTA)Ala-D-V-Y-C-5FW-[(2S, 3S)beta-Me-Phe]-hydroxyVal-dAla-COOH] (Ac-[hLeu]YC[Tle]G[X15][Ala(piperidin-4-yl)]([PEG4-DOTA])DVYC[Trp(5-F)][X1][Val(3-OH)][dA]-OH; disulfide 3-11)
< 1 | CC(=O)N[C@@H](CCC(C)C)C(=O)N[C@@H](Cc1ccc(O)cc1)C(=O)N[C@H]1CSSC[C@@H](C(=O)N[C@@H](Cc2c[nH]c3ccc(F)cc23)C(=O)N[C@H](C(=O)N[C@H](C(=O)N[C@H](C)C(=O)O)C(C)(C)O)[C@@H](C)c2ccccc2)NC(=O)[C@H](Cc2ccc(O)cc2)NC(=O)[C@H](C(C)C)NC(=O)[C@H](CC(=O)O)NC(=O)[C@H](CC2CCN(C(=O)CCOCCOCCOCCOCCNC(=O)CN3CCN(CC(=O)O)CCN(CC(=O)O)CCN(CC(=O)O)CC3)CC2)NC(=O)[C@H](CC2CCN(C(N)=O)CC2)NC(=O)CNC(=O)[C@H](C(C)(C)C)NC1=O [compound 514, Ac-hLeu-Y-C-Tbg-G-Pip(CONH2)Ala-Pip(PEG4-DOTA)Ala-D-V-Y-C-5FW-[(2S, 3S)beta-Me-Phe]-hydroxyVal-dAla-COOH] (Ac-[hLeu]YC[Tle]G[X13][Ala(piperidin-4-yl)]([PEG4-DOTA])DVYC[Trp(5-F)][X1][Val(3-OH)][dA]-OH; disulfide 3-11)
< 1 | CC(=O)NCCOCCOCCOCCOCCC(=O)N1CCC(C[C@@H]2NC(=O)[C@H](CC3CCNCC3)NC(=O)CNC(=O)[C@H](C(C)(C)C)NC(=O)[C@@H](NC(=O)[C@H](Cc3ccc(O)cc3)NC(=O)[C@H](CCC(C)C)NC(C)=O)CSSC[C@@H](C(=O)N[C@@H](Cc3c[nH]c4ccc(F)cc34)C(=O)N[C@H](C(=O)N[C@H](C(=O)N[C@H](CCCCNC(=O)CN3CCN(CC(=O)O)CCN(CC(=O)O)CCN(CC(=O)O)CC3)C(=O)O)C(C)(C)O)[C@@H](C)c3ccccc3)NC(=O)[C@H](Cc3ccc(O)cc3)NC(=O)[C@H](C(C)C)NC(=O)[C@H](CC(=O)O)NC2=O)CC1 [compound 515, Ac-hLeu-Y-C-Tbg-G-PipAla-Pip(PEG4-Ac)Ala-D-V-Y-C-5FW-[(2S, 3S)beta-Me-Phe]-hydroxyVal-dLys(DOTA)-COOH] (Ac-[hLeu]YC[Tle]G[Ala(piperidin-4-yl)][Ala(piperidin-4-yl)]([PEG4-Ac])DVYC[Trp(5-F)][X1][Val(3-OH)][dK](DOTA)-OH; disulfide 3-11)
< 1 | CC(=O)N[C@@H](CCC(C)C)C(=O)N[C@@H](Cc1ccc(O)cc1)C(=O)N[C@H]1CSSC[C@@H](C(=O)N[C@@H](Cc2cccc3ccccc23)C(=O)N[C@H](C(=O)N[C@H](C(=O)N[C@H](CCCCNC(=O)CN2CCN(CC(=O)O)CCN(CC(=O)O)CCN(CC(=O)O)CC2)C(=O)O)C(C)(C)O)[C@@H](C)c2ccccc2)NC(=O)[C@H](Cc2ccc(O)cc2)NC(=O)[C@H](C(C)C)NC(=O)[C@H](CC(=O)O)NC(=O)[C@H](CC2CCOCC2)NC(=O)[C@H](CC2CCNCC2)NC(=O)CNC(=O)[C@H](C(C)(C)C)NC1=O [compound 516, Ac-hLeu-Y-C-Tbg-G-PipAla-ThpA-D-V-Y-C-1Nal-[(2S, 3S)beta-Me-Phe]-hydroxyVal-dLys(DOTA)-COOH] (Ac-[hLeu]YC[Tle]G[Ala(piperidin-4-yl)][Ala(4-THP)]DVYC[1Nal][X1][Val(3-OH)][dK](DOTA)-OH; disulfide 3-11)
< 1 | CC(=O)N[C@@H](CCC(C)C)C(=O)N[C@@H](Cc1ccc(O)cc1)C(=O)N[C@H]1CSSC[C@@H](C(=O)N[C@@H](Cc2c[nH]c3ccc(F)cc23)C(=O)N[C@H](C(=O)N[C@H](C(=O)N[C@H](C)C(=O)O)C(C)(C)O)[C@@H](C)c2ccccc2)NC(=O)[C@H](Cc2ccc(O)cc2)NC(=O)[C@H](C(C)C)NC(=O)[C@H](CC(=O)O)NC(=O)[C@H](CC2CCN(C(=O)CCOCCOCCOCCOCCNC(=O)CN3CCN(CC(=O)O)CCN(CC(=O)O)CCN(CC(=O)O)CC3)CC2)NC(=O)[C@H](CC2CCN(C)CC2)NC(=O)CNC(=O)[C@H](C(C)(C)C)NC1=O [compound 520, Ac-hLeu-Y-C-Tbg-G-Pip(Me)Ala-Pip(PEG4-DOTA)Ala-D-V-Y-C-5FW-[(2S, 3S)beta-Me-Phe]-hydroxyVal-dAla-COOH] (Ac-[hLeu]YC[Tle]G[X17][Ala(piperidin-4-yl)]([PEG4-DOTA])DVYC[Trp(5-F)][X1][Val(3-OH)][dA]-OH; disulfide 3-11)
< 1 | CC(=O)N[C@@H](CCC(C)C)C(=O)N[C@@H](Cc1ccc(O)cc1)C(=O)N[C@H]1CSSC[C@@H](C(=O)N[C@@H](Cc2c[nH]c3ccc(F)cc23)C(=O)N[C@H](C(=O)N[C@H](C(=O)N[C@H](C)C(=O)O)C(C)(C)O)[C@@H](C)c2ccccc2)NC(=O)[C@H](Cc2ccc(O)cc2)NC(=O)[C@H](C(C)C)NC(=O)[C@H](CC(=O)O)NC(=O)[C@H](CC2CCN(C(=O)CCOCCOCCOCCOCCNC(=O)CN3CCN(CC(=O)O)CCN(CC(=O)O)CCN(CC(=O)O)CC3)CC2)NC(=O)[C@H](CCCC[N+](C)(C)C)NC(=O)CNC(=O)[C@H](C(C)(C)C)NC1=O [compound 522, Ac-hLeu-Y-C-Tbg-G-Lys(Me)3-Pip(PEG4-DOTA)Ala-D-V-Y-C-5FW-[(2S, 3S)beta-Me-Phe]-hydroxyVal-dAla-COOH] (Ac-[hLeu]YC[Tle]G[Lys(Me3)][Ala(piperidin-4-yl)]([PEG4-DOTA])DVYC[Trp(5-F)][X1][Val(3-OH)][dA]-OH; disulfide 3-11)
< 1 | CC(=O)N[C@@H](CCC(C)C)C(=O)N[C@@H](Cc1ccc(O)cc1)C(=O)N[C@H]1CSSC[C@@H](C(=O)N[C@@H](Cc2c[nH]c3ccc(F)cc23)C(=O)N[C@H](C(=O)N[C@H](C(=O)N[C@H](CCCCNC(=O)CN2CCN(CC(=O)O)CCN(CC(=O)O)CCN(CC(=O)O)CC2)C(=O)O)C(C)(C)O)[C@@H](C)c2ccccc2)NC(=O)[C@H](Cc2ccc(O)cc2)NC(=O)[C@H](C(C)C)NC(=O)[C@H](CS(=O)(=O)O)NC(=O)[C@H](CC2CCOCC2)NC(=O)[C@H](CC2CCNCC2)NC(=O)CNC(=O)[C@H](C(C)(C)C)NC1=O [compound 524, Ac-hLeu-Y-C-Tbg-G-PipAla-ThpA-CysAcid-V-Y-C-5FW-[(2S, 3S)beta-Me-Phe]-hydroxyVal-dLys(DOTA)-COOH] (Ac-[hLeu]YC[Tle]G[Ala(piperidin-4-yl)][Ala(4-THP)][Cya]VYC[Trp(5-F)][X1][Val(3-OH)][dK](DOTA)-OH; disulfide 3-11)
< 1 | CC(=O)N[C@@H](CCC(C)C)C(=O)N[C@@H](Cc1ccc(O)cc1)C(=O)N[C@H]1CSSC[C@@H](C(=O)N[C@@H](Cc2c[nH]c3ccc(F)cc23)C(=O)N[C@H](C(=O)N[C@H](C(=O)N[C@H](CCCCNC(=O)[C@H](CCCC(=O)O)NC(=O)CN2CCN(CC(=O)O)CCN(CC(=O)O)CCN(CC(=O)O)CC2)C(=O)O)C(C)(C)O)[C@@H](C)c2ccccc2)NC(=O)[C@H](Cc2ccc(O)cc2)NC(=O)[C@H](C(C)C)NC(=O)[C@H](CC(=O)O)NC(=O)[C@H](CC2CCOCC2)NC(=O)[C@H](CC2CCN(CC(=O)O)CC2)NC(=O)CNC(=O)[C@H](C(C)(C)C)NC1=O [compound 525, Ac-hLeu-Y-C-Tbg-G-Pip(CH2COOH)Ala-ThpA-D-V-Y-C-5FW-[(2S, 3S)beta-Me-Phe]-hydroxyVal-dLys(hGlu-DOTA)-COOH] (Ac-[hLeu]YC[Tle]G[Ala(1-CH2CO2H-4-piperidyl)][Ala(4-THP)]DVYC[Trp(5-F)][X1][Val(3-OH)][dK]([Aad-DOTA])-OH; disulfide 3-11)
